In patent US20230083885A1, “MODULATORS OF INTEGRATED STRESS RESPONSE PATHWAY” (Praxis Biotech LLC, priority 2021, published 2023):
Like-named read-outs stand apart in the source and are kept apart here.

Experiments:
[1] = system: Chinese hamster ovary (CHO) cells; assay: Protein synthesis assay (puromycin incorporation, Western blot); assay type: cell-based; conditions: Cricetulus griseus, read-out: % Protein synthesis relative to untreated (1 μM test compound)
Description: Chinese hamster ovary (CHO) cells were maintained at 37° C. and 5% CO2 in Dulbecco's Modified Eagle's Media (DMEM) supplemented with 10% fetal bovine serum, 2 mM L-glutamine, 100 U/ml penicillin, and 100 μg/ml streptomycin. After reaching 80% of confluence, cells were detached and seeded on 6 well plates in complete media, allowed to recover overnight and treated for 2 hours with 1 μM of the test compound (to assess protein synthesis levels in unstressed condition), or for 2 hours with 300 nM Tg in the presence of 1 μM of the test compound (to assess the recovery of protein synthesis in a stressed condition). Cells with Tg alone were used as controls.
After the 2 hours treatments, media were replaced by adding 10 μg/ml puromycin (Sigma Aldrich #P8833) in complete media for 30 min. Media were removed and cells were lysed with SDS-PAGE lysis buffer. Lysates were transferred to 1.5 ml tubes and sonicated for 3 min and total protein amount were quantified using BCA Protein Assay Kit (Pierce). Equal amount of protein (30 μg) was loaded on SDS-PAGE gels.
A HRP-conjugated secondary antibody (Rockland) was employed to detect immune-reactive bands using enhanced chemiluminescence (ECL Western Blotting Substrate, Pierce). Quantification of protein bands was done by densitometry using ImageJ software.
The percentage levels were normalized to the media alone condition, which correspond to 100% protein synthesis. […]

ATF4 = ATF4 expression inhibition assay (ATF4 5'UTR luciferase reporter, thapsigargin-stressed); assay type: cell-based; conditions: Homo sapiens, HEK-293T, read-out: ATF4 inhibition
Description: The ATF4 reporter was prepared by fusing the human full length 5′UTR of ATF4 (NCBI Accession No. BC022088.2) upstream of the firefly luciferase coding sequence lacking the initiator methionine. The fused sequence was cloned into pLenti-EF1a-C-Myc-DDK-IRES-Puro cloning vector (Origen #PS100085) using standard methods.
HEK293T cells carrying the ATF4 luciferase reporter were plated on 96-well plates (Nunc) at 10,000 cells per well. Cells were treated two days after seeding with 100 nM thapsigargin (Tg) (Sigma-Aldrich #T9033) in the presence of different concentrations of selected compounds ranging from 0.1 nM to 10 μM. Cells without treatment or cells treated with Tg alone were used as controls. Assay plates containing cells were incubated for 3 hours at 37° C.
Luciferase reactions were performed using Luciferase Assay System (Promega #E1501) as specified by the manufacturer. Luminescence was read with an integration time of 1 s and a gain of 110 using a Cytation-5 multi-mode microplate reader (BioTek).

[2] = unstressed CHO cells (without Tg), 1 μM test compound, 2 hours, media alone = 100%
[3] = HEK293T cells carrying ATF4 luciferase reporter, 100 nM thapsigargin, 3 hours

IC50 (ATF4; [3]) [nM]	Structure (SMILES)	other results
< 10	O=C(COc1ccc(Cl)c(F)c1)N[C@H]1CC[C@H](c2cnn(-c3ccc(Cl)cc3)c2)CC1 [Compound 37, trans-2-(4-chloro-3-fluorophenoxy)-N-(4-(1-(4-chlorophenyl)-1H-pyrazol-4-yl)cyclohexyl)acetamide]	activity at 1 µM [1, 2]: 24.3%
100 to 1000	O=C(Nc1ccc2cc(Cl)ccc2n1)[C@H]1CC[C@H](c2nnc([C@@H]3CNc4cc(Cl)ccc4O3)o2)CC1 (single isomer, unassigned) [Compound 245]	
100 to 1000	O=C(Nc1ccc2cc(Cl)ccc2n1)C1CCN(c2nnc([C@H]3C[C@@H](OC(F)(F)F)C3)o2)CC1 [Compound 50, N-(6-chloroquinolin-2-yl)-1-(5-(cis-3-(trifluoromethoxy)cyclobutyl)-1,3,4-oxadiazol-2-yl)piperidine-4-carboxamide]	
100 to 1000	O=C(Nc1ccc2cc(Cl)ccc2n1)[C@H]1CC[C@H](c2nnc(C3CCC(F)(F)CC3)o2)CC1 [Compound 28, trans-N-(6-chloroquinolin-2-yl)-4-(5-(4,4-difluorocyclohexyl)-1,3,4-oxadiazol-2-yl)cyclohexanecarboxamide]	activity at 1 µM [1, 2]: 23.8%
10 to 100	O=C(Nc1ccc2cc(Cl)ccc2n1)[C@H]1CC[C@H](c2nnc(COc3ccc(Cl)cc3)o2)CC1 [Compound 40, trans-4-(5-((4-chlorophenoxy)methyl)-1,3,4-oxadiazol-2-yl)-N-(6-chloroquinolin-2-yl)cyclohexanecarboxamide]	
	O=C(NC[C@H]1CC[C@H](c2nnc(-c3ccc(Cl)cc3)o2)CC1)c1ccc2cc(Cl)ccc2n1 [Compound 1, trans-6-chloro-N-((4-(5-(4-chlorophenyl)-1,3,4-oxadiazol-2-yl)cyclohexyl)methyl)quinoline-2-carboxamide]	activity at 1 µM ([1]; CHO, 2 h): 158%; IC50 (ATF4; 3 h): > 1000 nM
< 10	O=C(COc1ccc(Cl)c(F)c1)N[C@H]1CC[C@H](c2nnc(-c3ccc(Cl)c(F)c3)o2)CC1 [Compound 17, trans-2-(4-chloro-3-fluorophenoxy)-N-(4-(5-(4-chloro-3-fluorophenyl)-1,3,4-oxadiazol-2-yl)cyclohexyl)acetamide]	activity at 1 µM [1, 2]: 105%
	O=C(Nc1ccc2cc(Cl)ccc2n1)[C@H]1CC[C@H](c2nnc(-c3ccc(Cl)cc3)o2)CC1 [Compound 19, trans-4-(5-(4-chlorophenyl)-1,3,4-oxadiazol-2-yl)-N-(6-chloroquinolin-2-yl)cyclohexane-1-carboxamide]	activity at 1 µM ([1]; CHO, 2 h): 100%; IC50 (ATF4; 3 h): 10 to 100 nM
10 to 100	O=C(Nc1ccc2cc(Cl)ccc2n1)[C@H]1CC[C@H](c2nnc(-c3ccc4cc(Cl)ccc4n3)o2)CC1 [Compound 46, trans-N-(6-chloroquinolin-2-yl)-4-(5-(6-chloroquinolin-2-yl)-1,3,4-oxadiazol-2-yl)cyclohexanecarboxamide]	activity at 1 µM [1, 2]: 11.8%
100 to 1000	O=C(Nc1nc2cc(Cl)ccc2o1)[C@H]1CC[C@H](c2nnc([C@H]3C[C@@H](OC(F)(F)F)C3)o2)CC1 [Compound 241, trans-N-(5-chlorobenzo[d]oxazol-2-yl)-4-(5-(3-(cis-trifluoromethoxy)cyclobutyl)-1,3,4-oxadiazol-2-yl)cyclohexanecarboxamide]	
100 to 1000	O=C(NCc1cc2cc(Cl)ccc2o1)[C@H]1CC[C@H](c2nnc(COc3ccc(Cl)cc3)o2)CC1 [Compound 53, trans-N-((5-chlorobenzofuran-2-yl)methyl)-4-(5-((4-chlorophenoxy)methyl)-1,3,4-oxadiazol-2-yl)cyclohexanecarboxamide]	
100 to 1000	O=C(NC[C@H]1CC[C@H](c2nnc(-c3ccc(Cl)cc3)o2)CC1)c1ccc(C(F)(F)F)cn1 [Compound 20, trans-N-((4-(5-(4-chlorophenyl)-1,3,4-oxadiazol-2-yl)cyclohexyl)methyl)-5-(trifluoromethyl)picolinamide]	
100 to 1000	O=C(Nc1ccc2cc(Cl)ccc2n1)[C@H]1CC[C@@H](c2cnn(-c3ccc(Cl)cc3)c2)CC1 [Compound 249, cis-4-(1-(4-chlorophenyl)-1H-pyrazol-4-yl)-N-(6-chloroquinolin-2-yl)cyclohexanecarboxamide]	
< 10	O=C(NN1CCC(c2nnc([C@H]3C[C@@H](OC(F)(F)F)C3)o2)CC1)c1cc2cc(Cl)ccc2o1 [Compound 251, 5-chloro-N-(4-(5-(cis-3-(trifluoromethoxy)cyclobutyl)-1,3,4-oxadiazol-2-yl)piperidin-1-yl)benzofuran-2-carboxamide]	
100 to 1000	O=C(Nc1ccc2cc(Cl)ccc2n1)C1CCN(c2nnc(-c3ccc(Cl)cc3)o2)CC1 [Compound 49, 1-(5-(4-chlorophenyl)-1,3,4-oxadiazol-2-yl)-N-(6-chloroquinolin-2-yl)piperidine-4-carboxamide]	
100 to 1000	O=C(Nc1ccc2cc(Cl)ccc2n1)[C@H]1CC[C@H](c2nnc([C@H]3CNc4cc(Cl)ccc4O3)o2)CC1 (single isomer, unassigned) [Compound 246]	
	O=C(Nc1nc2cc(Cl)ccc2o1)[C@H]1CC[C@H](c2nnc(CO[C@H]3C[C@@H](OC(F)(F)F)C3)o2)CC1 [Compound 41, trans-N-(5-chlorobenzo[d]oxazol-2-yl)-4-(5-((cis-3-(trifluoromethoxy)cyclobutoxy)methyl)-1,3,4-oxadiazol-2-yl)cyclohexanecarboxamide]	IC50 (ATF4; 3 h): 100 to 1000 nM
100 to 1000	O=C(NCc1cc2cc(Cl)ccc2o1)[C@H]1CC[C@H](c2nnc(-c3cc4cc(Cl)ccc4o3)o2)CC1 [Compound 54, trans-4-(5-(5-chlorobenzofuran-2-yl)-1,3,4-oxadiazol-2-yl)-N-((5-chlorobenzofuran-2-yl)methyl)cyclohexanecarboxamide]	
< 10	O=C(NN1CCC(c2nnc([C@H]3C[C@@H](OC(F)(F)F)C3)o2)CC1)C1CNc2cc(Cl)ccc2O1 (some centres unmarked) [Compound 252, 6-chloro-N-(4-(5-((1s,3s)-3-(trifluoromethoxy)cyclobutyl)-1,3,4-oxadiazol-2-yl)piperidin-1-yl)-3,4-dihydro-2H-benzo[b][1,4]oxazine-2-carboxamide]	
10 to 100	O=C(Nc1nc2cc(Cl)ccc2s1)[C@H]1CC[C@H](c2nnc([C@H]3C[C@@H](OC(F)(F)F)C3)o2)CC1 [Compound 52, trans-N-(5-chlorobenzo[d]thiazol-2-yl)-4-(5-(cis-3-(trifluoromethoxy)cyclobutyl)-1,3,4-oxadiazol-2-yl)cyclohexanecarboxamide]	
100 to 1000	O=C(NC[C@H]1CC[C@H](c2nnc(-c3ccc(Cl)cc3)o2)CC1)c1ccc(C(F)(F)F)nc1 [Compound 21, trans-N-((4-(5-(4-chlorophenyl)-1,3,4-oxadiazol-2-yl)cyclohexyl)methyl)-6-(trifluoromethyl)nicotinamide]	
100 to 1000	O=C(NC[C@H]1CC[C@H](c2nnc(-c3ccc(Cl)cc3)o2)CC1)[C@H]1C[C@@H](O)c2cc(Cl)ccc2O1 [Compound 253, (2R,4R)-6-chloro-N-((trans-4-(5-(4-chlorophenyl)-1,3,4-oxadiazol-2-yl)cyclohexyl)methyl)-4-hydroxychroman-2-carboxamide]	
100 to 1000	O=C(NCc1cc2cc(Cl)ccc2o1)[C@H]1CC[C@H](c2nnc(-c3ccc(Cl)cc3)o2)CC1 [Compound 51, trans-N-((5-chlorobenzofuran-2-yl)methyl)-4-(5-(4-chlorophenyl)-1,3,4-oxadiazol-2-yl)cyclohexanecarboxamide]	
100 to 1000	O=C(Nc1ccc2cc(Cl)ccc2n1)[C@H]1CC[C@H](c2nnc([C@H]3C[C@@H](C(F)(F)F)C3)o2)CC1 [Compound 248, trans-N-(6-chloroquinolin-2-yl)-4-(5-(cis-3-(trifluoromethyl)cyclobutyl)-1,3,4-oxadiazol-2-yl)cyclohexanecarboxamide]	

Structure (SMILES)	IC50 (ATF4; [3]) [nM]	other results
O=C(Nc1nc2cc(Cl)ccc2s1)[C@H]1CC[C@H](c2nnc(CO[C@H]3C[C@@H](OC(F)(F)F)C3)o2)CC1 [Compound 39, trans-N-(5-chlorobenzo[d]thiazol-2-yl)-4-(5-((cis-3-(trifluoromethoxy)cyclobutoxy)methyl)-1,3,4-oxadiazol-2-yl)cyclohexanecarboxamide]	> 1000	
O=C(Nc1ccc2cc(Cl)ccc2n1)[C@H]1CC[C@H](c2nnc(CO[C@H]3C[C@@H](OC(F)(F)F)C3)o2)CC1 [Compound 38, trans-N-(6-chloroquinolin-2-yl)-4-(5-((cis-3-(trifluoromethoxy)cyclobutoxy)methyl)-1,3,4-oxadiazol-2-yl)cyclohexanecarboxamide]	100 to 1000	
